Assay results taken from patent publication US12617785B2, “Pyrrolo[2,3-b]pyridine-3-carboxamide compositions and methods for ameliorating hearing loss” (priority 2020, dated 2026).

Columns and labels:
Lats1 [1] = target: T1, Lats1 (Homo sapiens, UniProt O95835); experiment: In vitro kinase assay (HTRF KinEASE-STK S1) Lats1, 2 mM ATP; type: biochemical
T1 construct: purchased Carna 01-123
T1 sequence (O95835 1-1130): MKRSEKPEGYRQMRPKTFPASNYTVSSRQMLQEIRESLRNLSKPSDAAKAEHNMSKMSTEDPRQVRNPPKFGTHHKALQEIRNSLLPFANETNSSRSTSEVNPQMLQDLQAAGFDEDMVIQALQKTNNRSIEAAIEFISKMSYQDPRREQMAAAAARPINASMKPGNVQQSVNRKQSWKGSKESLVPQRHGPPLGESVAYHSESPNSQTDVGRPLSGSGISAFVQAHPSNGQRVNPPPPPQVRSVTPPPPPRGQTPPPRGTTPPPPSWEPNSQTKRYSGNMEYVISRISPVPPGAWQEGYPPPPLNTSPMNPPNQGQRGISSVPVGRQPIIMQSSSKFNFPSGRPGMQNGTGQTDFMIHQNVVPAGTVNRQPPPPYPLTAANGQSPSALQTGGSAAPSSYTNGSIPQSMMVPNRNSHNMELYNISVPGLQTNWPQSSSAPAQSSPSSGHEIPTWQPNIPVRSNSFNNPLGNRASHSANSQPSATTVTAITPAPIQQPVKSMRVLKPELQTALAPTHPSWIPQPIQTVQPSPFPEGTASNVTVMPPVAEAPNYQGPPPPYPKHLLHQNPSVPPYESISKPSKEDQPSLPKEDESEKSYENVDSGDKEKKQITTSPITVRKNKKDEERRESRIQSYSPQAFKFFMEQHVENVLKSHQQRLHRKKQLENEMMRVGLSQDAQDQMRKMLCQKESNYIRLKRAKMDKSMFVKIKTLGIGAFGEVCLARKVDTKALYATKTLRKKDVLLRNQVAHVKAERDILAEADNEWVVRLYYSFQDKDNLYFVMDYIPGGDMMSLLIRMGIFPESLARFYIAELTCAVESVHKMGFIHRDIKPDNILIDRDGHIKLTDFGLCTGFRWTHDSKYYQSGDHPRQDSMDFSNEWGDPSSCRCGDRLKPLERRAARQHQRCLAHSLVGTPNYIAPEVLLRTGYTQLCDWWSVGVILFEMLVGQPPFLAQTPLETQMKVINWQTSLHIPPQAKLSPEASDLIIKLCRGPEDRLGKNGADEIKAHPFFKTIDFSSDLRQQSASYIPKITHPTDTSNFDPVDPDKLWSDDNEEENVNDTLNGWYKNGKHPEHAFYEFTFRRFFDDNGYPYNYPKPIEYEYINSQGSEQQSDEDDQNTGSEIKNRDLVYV
Protocol: (§1) Reactions were conducted with 10 μM STK1 substrate and 10 μM ATP or 2 mM ATP as shown below. […] The enzyme, substrate, ATP, and test compound of the invention were combined in a low-volume 384-well plate and shaken for 50 min at room temperature, unless otherwise indicated. The reaction was stopped by adding the detection reagents, which were prepared at an 8:1 biotin:streptavidin ratio and shaking for 60 min at room temperature. All reactions were conducted in triplicate and a Synergy NEO (Biotek) was used to detect the signal.
Assay was carried out in a 384 well plate. Each drug dosage curve was done with 16 points of 3-fold dilutions in 100% DMSO, and triplicate.

Lats1 [2] = target: T1, Lats1; experiment: In vitro kinase assay (HTRF KinEASE-STK S1) Lats1, 10 uM ATP; type: biochemical
Protocol: IVKA assay at 10 uM method:
as §1

[3] = tested on: adult utricular supporting cells; experiment: EdU proliferation assay in cultured adult utricles; type: cell-based, mice; settings: after 5 days of treatment; control=20; p=0.021
Protocol: (§2) The compound T01 was tested extensively to explore its mechanism of action and its utility in regenerating hair cells of the ear. The effects of the compounds were tested on utricles isolated from mice eight to twelve weeks of age. Internal ears were dissected from mice euthanized with fluothane and placed into ice-cold Hank's balanced salt solution, and cultured as previously described by Gnedeva, K. & Hudspeth [Proc. Natl. Acad. Sci. 112, 14066-14071 (2015)].
For proliferation assays, utricles were cultured with 10 μM 5-ethynyl-2′-deoxyuridine (EdU) that was detected with click chemistry.
(§3) ; T01-treated=250 EdU+ supporting cells; […]

Yap = Yap phosphorylation by western blot in cultured utricles; type: cell-based; settings: utricles from adult mice
Protocol: as §2, §3

[4] = 2 mM ATP, read-out: LATS1_HTRF_2 mM ATP IC50
[5] = 10 uM ATP, read-out: LATS1_HTRF_10 uM ATP IC50

SMILES	IC50 (Lats1 [1]; [4]) [nM]	IC50 (Lats1 [2]; [5]) [nM]	further results
CC(c1ccccc1)n1ccs/c1=N\C(=O)c1c[nH]c2ncccc12 (centres unmarked) [T39, (Z)—N-(3-(1-Phenylethyl)thiazol-2(3H)-ylidene)-1H-pyrrolo[2,3-b]pyridine-3-carboxamide]	–	–	IC50 (Lats1 [1]): 59.2 nM; IC50 (Lats1 [2]): 1.9 nM
NCc1ccccc1Cn1ccs/c1=N\C(=O)c1c[nH]c2ncccc12 [T43, (Z)—N-(3-(2-(aminomethyl)benzyl)thiazol-2(3H)-ylidene)-1H-pyrrolo[2,3-b]pyridine-3-carboxamide]	141	2.2	–
O=C(/N=c1\sccn1Cc1ccccc1)c1c[nH]c2ncccc12 [T01, (Z)—N-(3-benzylthiazol-2(3H)-ylidene)-1H-pyrrolo[2,3-b]pyridine-3-carboxamide]	–	–	EdU+ supporting cells [3]: 250; level of Yap phosphorylation as detected by western blot (Yap): striking reduction
NCc1cccc(Cn2ccs/c2=N\C(=O)c2c[nH]c3ncccc23)c1 [T45, (Z)—N-(3-(3-(aminomethyl)benzyl)thiazol-2(3H)-ylidene)-1H-pyrrolo[2,3-b]pyridine-3-carboxamide]	309	30.7	–
O=C(/N=c1\occn1Cc1ccccc1)c1c[nH]c2ncccc12 [T25]	59.2	1.9	–
O=C(/N=c1\sccn1-c1ccccc1)c1c[nH]c2ncccc12 [T14]	3	0.3	–
Cc1cs/c(=N\C(=O)c2c[nH]c3ncccc23)n1Cc1ccccc1 [T49]	–	–	IC50 (Lats1 [1]): 0.5 nM; IC50 (Lats1 [2]): 2.7 nM
Cc1ccc2c(C(=O)/N=c3\sccn3Cc3ccccc3)c[nH]c2n1 [T02]	–	5840	–
N#Cc1cccc(Cn2ccs/c2=N\C(=O)c2c[nH]c3ncccc23)c1 [T44, (Z)—N-(3-(3-cyanobenzyl)thiazol-2(3H)-ylidene)-1H-pyrrolo[2,3-b]pyridine-3-carboxamide]	–	260	–
Cn1nccc1Cn1ccs/c1=N\C(=O)c1c[nH]c2ncccc12 [T58]	–	128	–
O=C(/N=c1\sccn1Cc1ccccc1)c1c[nH]c2ncc(Cl)cc12 [T06]	–	92.2	–
CC(N)CCn1ccs/c1=N\C(=O)c1c[nH]c2ncccc12 (centres unmarked) [T41, (Z)—N-(3-(3-aminobutyl)thiazol-2(3H)-ylidene)-1H-pyrrolo[2,3-b]pyridine-3-carboxamide]	303	4.4	–
